From US9944654B2, “Nargenicin compounds and uses thereof as antibacterial agents” (priority 2014, dated 2018)
Converted amounts (≈) assume the structure as drawn. Read-outs that look alike come from different tables or passages of the source.

Legend:
[1] = biological target: T1, E. coli DnaE (DNA polymerase III α-subunit from Escherichia coli) (Escherichia coli, UniProt P10443); experiment: In vitro DnaE single enzyme assay (E. coli); format: biochemical
T1 construct: EcDnaE (E. coli DnaE residues 1-1160); 6xHis (N); made in house; host or cells: E. coli BL21(DE3)
T1 sequence (P10443 whole entry, the tested form may be a part): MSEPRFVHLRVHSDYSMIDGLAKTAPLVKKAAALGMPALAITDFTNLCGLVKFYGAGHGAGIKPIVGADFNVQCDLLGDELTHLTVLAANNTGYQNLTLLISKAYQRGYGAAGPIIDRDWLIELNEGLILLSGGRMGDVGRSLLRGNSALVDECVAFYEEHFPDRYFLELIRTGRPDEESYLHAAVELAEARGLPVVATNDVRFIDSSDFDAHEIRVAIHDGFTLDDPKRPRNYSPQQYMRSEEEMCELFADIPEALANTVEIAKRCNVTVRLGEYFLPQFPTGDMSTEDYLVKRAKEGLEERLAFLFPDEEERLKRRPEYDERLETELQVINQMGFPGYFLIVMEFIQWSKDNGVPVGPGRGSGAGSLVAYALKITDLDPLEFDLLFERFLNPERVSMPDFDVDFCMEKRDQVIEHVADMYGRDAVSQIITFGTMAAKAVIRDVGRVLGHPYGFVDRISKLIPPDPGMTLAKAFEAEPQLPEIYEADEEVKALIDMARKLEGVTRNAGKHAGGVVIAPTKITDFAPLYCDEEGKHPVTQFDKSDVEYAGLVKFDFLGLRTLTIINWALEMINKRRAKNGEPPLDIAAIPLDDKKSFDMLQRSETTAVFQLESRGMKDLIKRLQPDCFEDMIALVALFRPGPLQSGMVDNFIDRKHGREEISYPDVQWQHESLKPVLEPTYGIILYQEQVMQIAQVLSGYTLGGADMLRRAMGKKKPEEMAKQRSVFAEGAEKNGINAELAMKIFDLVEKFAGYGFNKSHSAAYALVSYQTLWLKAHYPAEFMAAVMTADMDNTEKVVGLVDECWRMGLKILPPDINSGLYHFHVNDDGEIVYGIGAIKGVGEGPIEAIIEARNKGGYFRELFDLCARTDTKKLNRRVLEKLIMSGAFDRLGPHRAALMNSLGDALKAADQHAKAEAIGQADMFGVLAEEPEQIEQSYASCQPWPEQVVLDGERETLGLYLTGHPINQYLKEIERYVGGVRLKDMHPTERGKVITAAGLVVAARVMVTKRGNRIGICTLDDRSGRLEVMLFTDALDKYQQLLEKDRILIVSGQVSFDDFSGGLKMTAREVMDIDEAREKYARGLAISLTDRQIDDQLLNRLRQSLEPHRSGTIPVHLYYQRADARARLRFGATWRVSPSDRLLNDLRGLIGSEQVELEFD
How it was run: (§1)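 His-tagged E. coli DnaE (residues 1-1160, 0.8 μg/ml) or S. aureus DnaE (residues 1-1065, 0.05 μg/ml) incubated 30 min at 30° C. with activated calf thymus DNA, 0.025 mM dATP/dGTP/dCTP and 0.011 mM 3H-dTTP in Tris pH 7.5/Mg acetate. TCA-precipitated labelled DNA counted.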

[2] = biological target: T2, S. aureus DnaE (DNA polymerase III α-subunit homolog from Staphylococcus aureus) (Staphylococcus aureus, UniProt Q5HF71); experiment: biochemical; format: biochemical
T2 construct: SaDnaE (S. aureus DnaE residues 1-1065); 6xHis (N); made in house; host or cells: E. coli BL21-AI
T2 sequence (Q5HF71 1-1065): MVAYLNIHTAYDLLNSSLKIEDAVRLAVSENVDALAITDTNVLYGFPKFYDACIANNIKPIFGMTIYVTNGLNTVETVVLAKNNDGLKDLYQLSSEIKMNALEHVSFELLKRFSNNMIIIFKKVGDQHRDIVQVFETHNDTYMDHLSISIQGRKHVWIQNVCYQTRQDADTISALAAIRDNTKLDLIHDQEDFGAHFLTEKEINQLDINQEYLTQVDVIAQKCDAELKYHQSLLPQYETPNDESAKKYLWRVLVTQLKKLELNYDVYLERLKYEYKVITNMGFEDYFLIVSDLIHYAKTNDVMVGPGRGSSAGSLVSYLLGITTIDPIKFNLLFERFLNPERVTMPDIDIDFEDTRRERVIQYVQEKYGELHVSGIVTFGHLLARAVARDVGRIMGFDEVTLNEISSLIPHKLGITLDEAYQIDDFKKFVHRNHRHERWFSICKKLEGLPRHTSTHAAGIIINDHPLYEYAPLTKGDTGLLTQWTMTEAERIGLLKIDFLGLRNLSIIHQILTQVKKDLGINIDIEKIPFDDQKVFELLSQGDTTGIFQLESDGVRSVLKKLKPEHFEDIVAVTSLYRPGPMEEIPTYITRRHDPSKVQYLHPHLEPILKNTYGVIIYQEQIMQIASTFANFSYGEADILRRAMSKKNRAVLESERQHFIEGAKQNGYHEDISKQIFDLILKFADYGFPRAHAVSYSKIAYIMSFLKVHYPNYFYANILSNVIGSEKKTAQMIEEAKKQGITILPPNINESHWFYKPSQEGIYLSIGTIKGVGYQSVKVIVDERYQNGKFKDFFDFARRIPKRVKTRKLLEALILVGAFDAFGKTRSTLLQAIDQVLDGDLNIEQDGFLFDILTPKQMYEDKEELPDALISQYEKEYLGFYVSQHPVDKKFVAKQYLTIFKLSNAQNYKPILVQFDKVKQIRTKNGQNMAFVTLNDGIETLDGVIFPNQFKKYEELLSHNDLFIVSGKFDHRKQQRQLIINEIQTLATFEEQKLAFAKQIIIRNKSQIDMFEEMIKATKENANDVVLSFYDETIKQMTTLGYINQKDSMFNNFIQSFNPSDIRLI
How it was run: as §1

[3] = system: Escherichia coli MB5747 (LS 883, tolC); experiment: microbe, parasite or virus in culture; format: cell-based; conditions: * = some reduction of growth versus control at […]; for MIC: Escherichia coli, read-out: E. coli LS883 tolC (MIC), MHII broth; for E. coli LS883 tolC (MIC): MHII broth
[4] = system: Pseudomonas aeruginosa MB5890 (CB1101, efflux-deleted); experiment: microbe, parasite or virus in culture; format: cell-based; conditions: * = some reduction of growth versus control at […]; for MIC: Pseudomonas aeruginosa, read-out: P. aeruginosa MB5890 efflux-del (MIC), MHII broth; for P. aeruginosa MB5890 efflux-del (MIC): MHII broth
[5] = system: Staphylococcus aureus MB6266 (MRSA COL); experiment: Nargenicin antibacterial assay (MIC), S. aureus; format: cell-based; conditions: * = some reduction of growth versus control at […]; for MIC: Staphylococcus aureus, MRSA, read-out: S. aureus COL (MIC), MHII broth + 50% human serum; for S. aureus COL (MIC): MHII broth + 50% human serum
[6] = system: Streptococcus pneumoniae MB6357 (CL 2883); experiment: Nargenicin antibacterial assay (MIC), S. pneumoniae; format: cell-based; conditions: * = some reduction of growth versus control at […]; for MIC: Streptococcus pneumoniae, read-out: S. pneumoniae MB2883 (MIC), Isosensitest broth; for S. pneumoniae MB2883 (MIC): Isosensitest broth
[7] = read-out: E. coli DnaE IC50 (converted)
[8] = read-out: S. aureus DnaE IC50 (converted)

| Compound | IC50 [1, 7] [µM] | IC50 ([2]; S. aureus DnaE IC50) [nM] | MIC [3] [µg/mL] | MIC [4] [µg/mL] | MIC [5] [µg/mL] | MIC [6] [µg/mL] | E. coli DnaE IC50 [1] [µg/mL] | S. aureus DnaE IC50 [2] [ng/mL] | E. coli LS883 tolC (MIC) [3] [µg/mL] | P. aeruginosa MB5890 efflux-del (MIC) [4] [µg/mL] | S. aureus COL (MIC) [5] [µg/mL] | S. pneumoniae MB2883 (MIC) [6] | IC50 ([1]; E. coli DnaE IC50) [µM] | IC50 [2, 8] [nM] |
| --- | --- | --- | --- | --- | --- | --- | --- | --- | --- | --- | --- | --- | --- | --- |
| CO[C@H]1C[C@H]2[C@@H](O)C[C@H]3[C@H]4O[C@]2(/C(C)=C/[C@@H](C)[C@@H]([C@@H](C)O)OC1=O)[C@@H]3[C@H](O)[C@@H](C)[C@H]4OC(=O)c1ccc[nH]1 [Example 193] | > 187 | 1870 | 64 (≈ 120 µM) | > 128 | > 128 | > 128 |  |  |  |  |  |  |  |  |
| CO[C@H]1C[C@H]2C=CC3C4[C@H](O)[C@@H](C)[C@@H](OC(=O)c5ccc[nH]5)[C@@H]3O[C@]42/C(C)=C/[C@@H](C)[C@@H]([C@@H](C)OC(=O)C(=O)OCCN2CCCC2)OC1=O.O=C(O)C(F)(F)F [Example 212] | 3.76 | < 7.51 | 4 | 128 | 4 | > 128 |  |  |  |  |  |  |  |  |
| CO[C@H]1C[C@H]2C[C@H](O)[C@H]3[C@H]4O[C@]2(/C(C)=C/[C@@H](C)[C@@H]([C@@H](C)O)OC1=O)[C@@H]3[C@H](O)[C@@H](C)[C@H]4OC(=O)c1ccc[nH]1 [Example 192] | > 187 | 18700 | > 128 | > 128 | > 128 | > 128 |  |  |  |  |  |  |  |  |
| CO[C@H]1C[C@H]2C=CC3C4[C@H](O)[C@@H](C)[C@@H](OC(=O)c5ccc[nH]5)[C@@H]3O[C@]42/C(C)=C/[C@@H](C)[C@@H]([C@@H](C)OC(=O)C(=O)NCc2ccccc2CN(C)C)OC1=O [Example 141] |  |  |  |  |  |  | 1 | <6 | 0.25 | 4 | 0.25 | >128* μg/mL |  |  |
| CO[C@H]1C[C@H]2C=C[C@H]3[C@H]4O[C@]2(/C(C)=C/[C@@H](C)[C@@H]([C@@H](C)O)OC1=O)[C@@H]3[C@H](O)C(C)[C@@H]4NCCN.O=C(O)C(F)(F)F (stereo partly drawn) [Example 155] |  |  | > 128 | 128 | > 128 | > 128 |  |  |  |  |  |  | > 173 | 2590 |
| CO[C@H]1C[C@H]2C=C[C@H]3[C@H]4O[C@]2(/C(C)=C/[C@@H](C)[C@@H]([C@@H](C)O)OC1=O)[C@@H]3[C@H](O)C(C)[C@@H]4NCCN1CCCC1.O=C(O)C(F)(F)F (stereo partly drawn) [Example 157] |  |  | > 128 | > 128 | > 128 | > 128 |  |  |  |  |  |  | > 158 | 3320 |
| CO[C@H]1C[C@H]2C=CC3C4[C@H](O)[C@@H](C)[C@@H](OC(=O)c5ccc[nH]5)[C@@H]3O[C@]42/C(C)=C/[C@@H](C)[C@@H]([C@@H](C)OC(=O)C(=O)OCc2ccncc2)OC1=O.O=C(O)C(F)(F)F [Example 69] | 6.31 | < 7.57 | 1 | 32 | 2 | > 128 |  |  |  |  |  |  |  |  |
| CO[C@H]1C[C@H]2C=C[C@H]3[C@H]4O[C@]2(/C(C)=C/[C@@H](C)[C@@H]([C@@H](C)O)OC1=O)[C@@H]3[C@H](O)[C@@H](C)[C@H]4OC(N)=O [Example 197] | 81.6 | 23.6 | 2 (≈ 4.3 µM) | 2 (≈ 4.3 µM) | 128 | > 128 |  |  |  |  |  |  |  |  |
| CO[C@H]1C[C@H]2C=CC3C4[C@H](O)[C@@H](C)[C@@H](OC(=O)c5ccc[nH]5)[C@@H]3O[C@]42/C(C)=C/[C@@H](C)[C@@H]([C@@H](C)OC(=O)C(=O)NC(C)(C)C)OC1=O [Example 116] |  |  |  |  |  |  | 15 | 6 | 0.25 | 8 | ≤0.125 | >128* μg/mL |  |  |
| CO[C@H]1C[C@H]2CC(=O)[C@H]3[C@H]4O[C@]2(/C(C)=C/[C@@H](C)[C@@H]([C@@H](C)O)OC1=O)[C@@H]3[C@H](O)[C@@H](C)[C@H]4OC(=O)c1ccc[nH]1 [Example 181] | > 188 | 94.1 | 8 (≈ 15 µM) | 32 (≈ 60.2 µM) | 64 | > 128 |  |  |  |  |  |  |  |  |
| CO[C@H]1C[C@H]2C=CC3C4[C@H](O)[C@@H](C)[C@@H](OC(=O)c5ccc(OC(C)=O)n5O)[C@@H]3O[C@]42/C(C)=C/[C@@H](C)[C@@H]([C@@H](C)O)OC1=O [Example 173] | > 170 | 543 | 8 (≈ 13.6 µM) | 16 (≈ 27.1 µM) | > 128 | 128 (≈ 217 µM) |  |  |  |  |  |  |  |  |
| CO[C@H]1C[C@H]2C=C[C@H]3[C@H]4O[C@]2(/C(C)=C/[C@H](C)[C@@H](c2ccccc2)OC1=O)[C@@H]3[C@H](O)[C@@H](C)[C@H]4OC(=O)c1ccc[nH]1 [Example 53] | 73 | 183 | > 128 | > 128 | > 128 | > 128 |  |  |  |  |  |  |  |  |
| CO[C@H]1C[C@H]2C=C[C@H]3[C@H]4O[C@]2(/C(C)=C/[C@@H](C)[C@@H]([C@@H](C)O)OC1=O)[C@@H]3C(=O)C(C)[C@H]4C[N+](=O)[O-] (stereo partly drawn) [Example 162, (3R,4 S ,7S ,8aS ,10aR,11R,12 S ,14aR,14b S,E)-4-((R)-1-hydroxyethyl)-7-methoxy-1,3,13-trimethyl-12-(nitromethyl)-3 ,4,8,8a,10a,11,12,13-octahydro-11,14b-epoxynaphtho [2,1-e]oxecine-6,14(7H,14aH)-dione] |  |  | > 128 | > 128 | > 128 | > 128 |  |  |  |  |  |  | > 216 | 17300 |
| CO[C@H]1C[C@H]2C=CC3C4[C@H](O)[C@@H](C)[C@@H](OC(=O)c5ccc[nH]5)[C@@H]3O[C@]42/C(C)=C/[C@@H](C)[C@@H]([C@@H](C)OC(=O)C(=O)OCc2ccccc2)OC1=O [Example 211] | 2.95 | < 8.85 | < 0.125 | 16 (≈ 23.6 µM) | 0.5 | > 128 |  |  |  |  |  |  |  |  |
| C=C1C[C@@H]2C[C@H](OC)C(=O)O[C@H]([C@@H](C)O)[C@H](C)/C=C(\C)[C@]23O[C@H]2[C@H](OC(=O)c4ccc[nH]4)[C@H](C)[C@@H](O)[C@@H]3[C@@H]12 [Example 200] | > 189 | 11.3 | 2 (≈ 3.78 µM) | 64 (≈ 121 µM) | 8 | 128 (≈ 242 µM) |  |  |  |  |  |  |  |  |
| CO[C@H]1C[C@H]2C=C[C@H]3[C@H]4O[C@]2(/C(C)=C/[C@@H](C)COC1=O)[C@@H]3[C@H](O)[C@@H](C)[C@H]4OC(=O)c1ccc[nH]1 [Example 47, (3R,7S,8aS,10aR,11R,12R,13R,14R,14aS,14bS,E)-14-hydroxy-7-methoxy-1,3,13-trimethyl-6-oxo-3,4,6,7,8,8a,10a,11,12,13,14,14a-dodecahydro-11,14b-epoxynaphtho[2,1-e]oxecin-12-yl 1H-pyrrole-2-carboxylate] | > 212 | 89.1 | 16 (≈ 33.9 µM) | > 128 | 64 | > 128 |  |  |  |  |  |  |  |  |
